Measurements as given in patent US20150352197A1, “PEPTIDE” (Apitope International NV, priority 2013, published 2015).
Ends that are not written are not given here.

How the values were obtained:
HLA-DRB1*1501 = target: T1, HLA-DRB1*1501 (Homo sapiens, UniProt P01903+P01911); assay: Antigen processing independent presentation system: fixed MGAR cells plus peptide-specific T cell hybridomas, IL-2 ELISA; format: cell-based
T1 construct: human cell line expressing HLA-DRB1*1501; host or cells: MGAR cells (human cell line), fixed with paraformaldehyde or fresh
Description: 100 μl of hybridoma cells were cultured with 5×10^4 MGAR cells (human cell line expressing HLA-DRB1*1501, Health Protection Agency Culture Collections, Salisbury, UK) in wells of a flat bottom 96-well plate. 50 μl complete RPMI-10% FCS containing a long peptide at 10 μg/ml or the same volume of DMSO (diluent of the peptide) was added to the wells. After 48 h, 120 μl of supernatant was removed and a mouse IL-2 ELISA (Enzyme-linked immunosorbent assay) performed. Clones that produce IL-2 recognise the antigen used. The remaining supernatants were frozen at −20° C.
96 well plates (Immunosorb 96 well, Nunc, Roskilde, Denmark) were coated with 50 μl/well purified rat anti-mouse IL-2 capture Ab (BD Biosciences, Oxford, UK), diluted 1:250 in carbonate buffer (3.56 g Na2CO3 (Sigma-Aldrich, Saint Louis, Mass.), 8.4 g NaHCO3 (Fisher Scientific, Loughborough, UK), 1 L elgastat water; pH 9.5) and incubated overnight at 4° C. After 2 washes in PBS-Tween (1 L 10× PBS, 9 L distilled water, 0.5 ml Tween (Sigma-Aldrich, Saint Louis, Mass.)), […] of PBS-10% FCS were added and incubated at RT for 1 hour. After 3 washes in PBS-Tween, 50 μl of supernatant or IL-2 standard (BD Biosciences, Oxford, UK) dilutions (in PBS-10% FCS) were added to the wells and incubated 2 h at RT. After 4 washes in PBS-Tween (Sigma-Aldrich, Saint Louis, Mass.), 50 μl/well of biotin rat anti-mouse IL2 (BD Biosciences, Oxford, UK) diluted 1:1000 in 10% FCS/PBS was added and incubated for 1 h at RT. After 4 washes, 50 μl/well extravidin peroxidase (Sigma-Aldrich, Saint Louis, Mass.) diluted 1:1000 in PBS was added and incubated 30 min at RT. After 4 washes, […] of substrate solution* was added and incubated at RT until a clear colour change was seen. The reaction was stopped using 50 μl/well 2M H2SO4 (BDH, Poole, UK) and plates were read at 450 nm (550 nm ref) with an ELISA reader (SpectraMax Pro, Molecular Device, Sunnyvale, Calif.). *Substrate solution: 10 ml phosphate-citrate buffer 0.1M (5.14 ml 0.2M Na2HPO4 (BDH, Poole, UK), 4.86 ml 0.1M citrate (Sigma), 10 ml elgastat water), 0.1 ml of TMB (defrost 3,3′,5,5′-Tetramethylbenzidine at 10 mg/ml in DMSO, Sigma-Aldrich, Saint Louis, Mass.), 6 μl of hydrogen peroxide (Sigma-Aldrich, Saint Louis, Mass.).
The specific clones were then tested for their responses to the 15-mer peptides (POP-1 to POP-12) with fixed or not fixed MGAR cells. For this purpose, 1×10^5 cells from the individual clones are cultured with 5×10^4 fixed or fresh MGAR cells in a 96-well flat bottom plate. […] After 48 h in culture, 120 μl of supernatant was harvested and analysed by ELISA to assess IL-2 production.

[1] = test system: splenocytes and lymph node cells; assay: In vitro proliferation assay for immunogenicity of the long peptides; format: cell-based, HLA-DRB1*1501 transgenic mice; conditions: HLA-DRB1*1501 mice, FIG. 1
[2] = test system: HLA-DRB1*1501 transgenic mice; assay: EAE induction by priming with long peptide; format: in vivo; conditions: long peptides, HLA-DRB1*1501 mice, FIG. 1
Description: For each peptide, in silico studies were carried out to predict DR2 (HLA-DRB1*1501) binding capacity, and in vitro (proliferation assay) and in vivo (EAE induction) studies were carried out to investigate response.
HLA-DRB1*1501 transgenic mice were injected with 100 μl containing 100 μg of long peptide in PBS (Lonza, Verviers, Belgium) or PBS alone, and with Complete Freund Adjuvant (CFA; BD Difco, Oxford, UK) with 4 mg/ml Mycobacterium tuberculosis (MTb, BD Difco, Oxford, UK) subcutaneously at the base of the tail. For EAE study, the mice were injected with 200 ng of pertussis toxin at the same time as the priming and 2 days after. The mice were then followed, weight and scored for disease every day.

[3] = test system: splenocytes (SPL) and lymph node cells (LNC); assay: Ex vivo tolerance assay: apitope pre-treatment, priming with long peptide, then recall proliferation and cytokine production; format: in vivo, HLA-DRB1*1501 mice
[4] = 15-mers spanning HEAL-26, HEAL-26 specific hybridomas from DR2 mice
[5] = LNC (lymph node) of pre-treated mice
[6] = SPL (spleen) of pre-treated mice

Row | Substance | identification as apitope (HLA-DRB1*1501; [4]) | response in the in vitro study (proliferation assay) [1] | response in the in vivo study (EAE induction) [2] | IL-17 production ([3]; LNC of pre-treated mice) | proliferation (3H-thymidine incorporation) [3, 5] | proliferation (3H-thymidine incorporation) [3, 6] | IL-17 production ([3]; SPL of pre-treated mice) | other results
1 | EKLIETYFSKNYQDY [POP-8, 15-mer overlapping peptide spanning HEAL-26] | identified as apitopes | – | – | – | – | – | – | –
2 | GVLPWNAFPGKVCGSNLLSICKTAEFQM-NH2 (cysteine pairing not given here) [GVLP-28, long peptide from a hydrophilic domain of PLP, residues 207-234] | – | respond | respond | significant inhibition | – | – | – | stimulation index of LNC proliferation ([3]; LNC of pre-treated mice): decrease
3 | HEALTGTEKLIETYFSKNYQDYEYLI-NH2 [HEAL-26, long peptide from a hydrophilic domain of PLP, residues 36-61] | – | respond | respond | decrease | decrease | decrease | decrease | IL-5 production ([3]; pre-treated mice, cell population not specified): increase
4 | LTGTEKLIETYFSKN [POP-4, 15-mer overlapping peptide spanning HEAL-26] | identified as apitopes | – | – | significant decrease | inhibition | inhibition | significant decrease | IFN-γ production ([3]; LNC of pre-treated mice): significant decrease; TNF-α production ([3]; LNC of pre-treated mice): significant decrease; IFN-γ production ([3]; SPL of pre-treated mice): significant decrease; TNF-α production ([3]; SPL of pre-treated mice): significant decrease
5 | TEKLIETYFSKNYQD [POP-7, 15-mer overlapping peptide spanning HEAL-26] | identified as apitopes | – | – | – | – | – | – | –
6 | TTCQSIAFPSKTSAS [POP-15, 15-mer overlapping peptide spanning TWTT-28] | – | – | – | significant inhibition | significant inhibition | no difference | less | GM-CSF production ([3]; LNC of pre-treated mice): significant inhibition; IFN-γ production ([3]; LNC of pre-treated mice): significant inhibition; cytokine production ([3]; LNC of pre-treated mice): inhibit very well; GM-CSF production ([3]; SPL of pre-treated mice): less; IFN-γ production ([3]; SPL of pre-treated mice): less; cytokine production ([3]; SPL of pre-treated mice): inhibit very well
7 | TWTTCQSIAFPSKTSASIGSLCADARMY-NH2 (cysteine pairing not given here) [TWTT-28, long peptide from a hydrophilic domain of PLP, residues 179-206] | – | respond | respond | – | inhibit very well | inhibit very well | – | cytokine production ([3]; LNC of pre-treated mice): inhibit very well; cytokine production ([3]; SPL of pre-treated mice): inhibit very well
8 | VLPWNAFPGKVCGSN [POP-22, 15-mer overlapping peptide spanning GVLP-28] | – | – | – | significant inhibition | – | – | – | identification as apitope (HLA-DRB1*1501; 15-mers spanning GVLP-28, TWTT-28 specific hybridomas from DR2 mice (so in the source)): identified as an apitope; stimulation index of LNC proliferation ([3]; LNC of pre-treated mice): decrease
